Laboratory results from patent US11512224B2, “Water-based coating composition and production method of the same” (TOYOTA JIDOSHA KABUSHIKI KAISHA, priority 2018, dated 2022).

Assay: Solubility in water at 20° C.
Details: for Solubility of curing catalyst in water: under atmospheric pressure at 20° C.; for Solubility of organic solvent in water: 20° C.

C1CCC2=NCCCN2CC1.Cc1ccc(S(=O)(=O)O)cc1 [DBU salt, diazabicycloundecene p-toluenesulfonate]
Solubility of curing catalyst in water (listed as diazabicycloundecene p-toluenesulfonate, p-toluenesulfonate): ≥ 0.5 g/100 ml
Solubility of curing catalyst in water (p-toluenesulfonate): 5 or greater g/100 ml

C1CN=C2CCCN2C1 [DBN, diazabicyclononene]
Solubility of curing catalyst in water: 5 or greater g/100 ml
Solubility of curing catalyst in water (listed as diazabicyclononene): ≥ 0.5 g/100 ml

COCC(C)O (stereo not shown) [PGME, 1-methoxy-2-propanol]
Solubility of organic solvent in water: ≥ 10 or g/100 ml
Solubility of organic solvent in water (listed as 1-methoxy-2-propanol): ≥ 10 g/100 ml

CC(C)O [IPA, 2-propanol]
Solubility of organic solvent in water: ≥ 10 or g/100 ml
Solubility of organic solvent in water (listed as 2-propanol): ≥ 10 g/100 ml

C1CCC2=NCCCN2CC1 [DBU, diazabicycloundecene]
Solubility of curing catalyst in water: 5 or greater g/100 ml
Solubility of curing catalyst in water (listed as diazabicycloundecene): ≥ 0.5 g/100 ml
